Measured values as given in US9795607B2, “Substituted pyrrolopyrimidine compounds, compositions thereof, and methods of treatment therewith” (Signal Pharmaceutical, LLC, priority 2013, dated 2017).

Test system: Triple negative breast cancer cell line CAL51
Assay: Cell Titer Glo proliferation assay, CAL51
Assay type: cell-based
Conditions: Homo sapiens, CAL-51; CAL51 cell proliferation, Cell Titer Glo; read-out: Act. Level
Summary of the method: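 CAL51 cells grown in DMEM or RPMI1640 with 10% FBS and 2 mM L-glutamine, cultured overnight, then exposed to serially diluted compound (0.2% DMSO final) for 72 h. Viability read by Cell Titer Glo luminescence.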

Row | IC50 [µM] | Structure (SMILES)
1 | 0.1 to 0.4 | CNC(=O)c1ccc(-c2c[nH]c3nc(Nc4ccc(C(=O)NC5COC5)cc4OC)nc(OCCOC)c23)cc1 [Example 373, 3-methoxy-4-(4-(2-methoxyethoxy)-5-(4-(methylcarbamoyl)phenyl)-7H-pyrrolo[2,3-d]pyrimidin-2-ylamino)-N-(oxetan-3-yl)benzamide]
2 | 0.4 to 1 | COc1cc(C(=O)N2CC2)ccc1Nc1nc(OC)c2c(-c3ccncc3)c[nH]c2n1 [Example 338, aziridin-1-yl(3-methoxy-4-(4-methoxy-5-(pyridin-4-yl)-7H-pyrrolo[2,3-d]pyrimidin-2-ylamino)phenyl)methanone]
3 | 0.4 to 1 | CNC(=O)c1ccc(Nc2nc(OC3CCCC3)c3c(-c4cccc(N(C)C)c4)c[nH]c3n2)c(OC)c1 [Example 322, 4-(4-(cyclopentyloxy)-5-(3-(dimethylamino)phenyl)-7H-pyrrolo[2,3-d]pyrimidin-2-ylamino)-3-methoxy-N-methylbenzamide]
4 | 0.1 to 0.4 | CNC(=O)c1ccc(Nc2nc(OC)c3c(-c4ccc5c(C)noc5c4)c[nH]c3n2)c(OC)c1 [Example 388, 3-methoxy-4-(4-methoxy-5-(3-methylbenzo[d]isoxazol-6-yl)-7H-pyrrolo[2,3-d]pyrimidin-2-ylamino)-N-methylbenzamide]
5 | < 0.1 | CNC(=O)c1ccc(Nc2nc(OC3CCC(C)(O)CC3)c3c(-c4ccc5nc(C)oc5c4)c[nH]c3n2)c(OC)c1 (stereo not drawn) [Example 205, 4-(4-((1r,4r)-4-hydroxy-4-methylcyclohexyloxy)-5-(2-methylbenzo[d]oxazol-6-yl)-7H-pyrrolo[2,3-d]pyrimidin-2-ylamino)-3-methoxy-N-methylbenzamide]
6 | 0.1 to 0.4 | CNC(=O)c1ccc(Nc2nc(OC3CCOCC3)c3c(-c4cncc(OC)c4)c[nH]c3n2)c(OC)c1 [Example 325, 3-methoxy-4-(5-(5-methoxypyridin-3-yl)-4-(tetrahydro-2H-pyran-4-yloxy)-7H-pyrrolo[2,3-d]pyrimidin-2-ylamino)-N-methylbenzamide]
